Where a name gives a salt, the structure may show the parent alone.
What was measured:
[1] = Initial solubility screening of selected drugs in cyclodextrin derivative:water-miscible organic solvent stock solutions; assay type: physicochemical; settings: for grams of stock solution required to solubilize the drug, Stock #2 / grams of stock solution required to solubilize the drug, Stock #3 / grams of stock solution required to solubilize the drug, Stock #1 / grams of stock solution required to solubilize the drug, Stock #5 / grams of stock solution required to solubilize the drug, Stock #6 / grams of stock solution required to solubilize the drug, Stock #4 / grams of stock solution required to solubilize the drug, Stock #7: 20-22 mg drug, raloxifene HCl + ca. 100 mg water, tamoxifen citrate + ca. 40 mg water; for grams of stock solution required to solubilize the drug, Stock #2 / grams of stock solution required to solubilize the drug, Stock #3 / grams of stock solution required to solubilize the drug, Stock #1: HBenβCD5.0 (30 wt %); for grams of stock solution required to solubilize the drug, Stock #2 / grams of stock solution required to solubilize the drug, Stock #3: PEG 400 (66.2 wt %); for grams of stock solution required to solubilize the drug, Stock #2: EtOH (3.8 wt %); for grams of stock solution required to solubilize the drug, Stock #3: PG (3.8 wt %); for grams of stock solution required to solubilize the drug, Stock #1: PEG 400 (70 wt %); for grams of stock solution required to solubilize the drug, Stock #5 / grams of stock solution required to solubilize the drug, Stock #6 / grams of stock solution required to solubilize the drug, Stock #4: HBenβCD6.6 (32 wt %); for grams of stock solution required to solubilize the drug, Stock #5 / grams of stock solution required to solubilize the drug, Stock #6: PEG 400 (64.6 wt %); for grams of stock solution required to solubilize the drug, Stock #5 / grams of stock solution required to solubilize the drug, Stock #7: EtOH (3.4 wt %); for grams of stock solution required to solubilize the drug, Stock #6: PG (3.4 wt %); for grams of stock solution required to solubilize the drug, Stock #4: PEG 400 (68 wt %); for grams of stock solution required to solubilize the drug, Stock #7: SulfoHBenCD (29 wt %), PEG 400 (67.6 wt %); for amount of stock solutions in which the drug was soluble: after mixing for ca. 48 h, all stock solutions
Procedure: In the following experiments, the water-miscible solvents were dried as described in example 1. The hydroxybutenyl-β-cyclodextrins (HBenβCD6.6 and HBenβCD5.0) and the sulfonated hydroxybutenyl-β-cyclodextrins (MSsulfonate=0.3, MSbutentyl=4.4) were carefully dried prior to use. The following stock solutions were prepared:
2. HBenβCD5.0 (30 wt %), PEG 400 (66.2 wt %), and EtOH (3.8 wt %)
7. SulfoHBenCD (29 wt %), PEG 400 (67.6 wt %), and EtOH (3.4 wt %)
Various drugs (20-22 mg) were weighed into different glass vials with screw caps. To each vial was added 1 gram (g) ±0.02 g of stock solution. The vial contents were mixed for ca. 48 h. Vials were inspected visually to determine whether the drugs were dissolved.

[2] = Pharmacokinetic study, oral bioavailability of tamoxifen:HBenBCD complexes; assay type: in vivo, Sprague-Dawley rats; settings: male, Sprague-Dawley, rat, plasma, 10 mg/kg
Procedure: 7, 2005, concurrently with this application (no Serial assigned at this time). […] The solid complexes were dissolved in the appropriate amount of water for aqueous oral dosing of animals.
The study animal were male Sprague-Dawley rats. […] Each group was sub-divided into 4 groups of 3 animals on the basis of time of dosing (AM or PM) and diet (fed or fasted). In the case of fasted animals, food was removed 8 hours prior to dosing then returned 5 hours post-dose.
Blood samples (ca. 300 μL) were collected from each animal via the jugular or sublingual vein at 1, 2, 3, 4, 6, 12 and 24 hours post-dose. Plasma was separated and stored in 96 well plates at −17 to −80° C. until analysis. […] Plasma (100 μL) was precipitated with 250 μL of acetonitrile. After centrifugation, the supernatant was analyzed for tamoxifen, hydroxytamoxifen, and desmethyltamoxifen by reversed phase LC-MS-MS using diphenhydramine as an internal standard.
This oral suspension dose was given to fed animals in the AM.
The area under the plasma concentration-time curve (AUC) from time zero to 24 h (AUC0-24h) and from time zero to infinity (AUC0-∞) was calculated by standard methods (Clinical Pharmacokinetics, Malcolm Rowland and Thomas Tozer, Lippincott, Williams, & Wilkins, 1995). Oral bioavailability was determined using the AUC from the IV and oral doses adjusted for the animal dose.

| grams of stock solution required to solubilize the drug, Stock #2 [1] | grams of stock solution required to solubilize the drug, Stock #3 [1] | grams of stock solution required to solubilize the drug, Stock #1 [1] | grams of stock solution required to solubilize the drug, Stock #5 [1] | grams of stock solution required to solubilize the drug, Stock #6 [1] | grams of stock solution required to solubilize the drug, Stock #4 [1] | grams of stock solution required to solubilize the drug, Stock #7 [1] | amount of stock solutions in which the drug was soluble [1] | bioavailability [2] | SMILES |
| --- | --- | --- | --- | --- | --- | --- | --- | --- | --- |
| 1.4 grams | 1.6 grams | 1.5 grams | 1.6 grams | 1.6 grams | 1.6 grams | 1.1 grams | – | – | O=C(c1ccc(OCCN2CCCCC2)cc1)c1c(-c2ccc(O)cc2)sc2cc(O)ccc12 [Raloxifene HCL] |
| – | – | – | – | – | – | – | – | 5% | CC/C(=C(\c1ccccc1)c1ccc(OCCN(C)C)cc1)c1ccccc1 [Tamoxifen] |

More lines, now with the values behind:

| SMILES | grams of stock solution required to solubilize the drug, Stock #2 [1] | grams of stock solution required to solubilize the drug, Stock #3 [1] | grams of stock solution required to solubilize the drug, Stock #1 [1] | grams of stock solution required to solubilize the drug, Stock #5 [1] | grams of stock solution required to solubilize the drug, Stock #6 [1] | grams of stock solution required to solubilize the drug, Stock #4 [1] | grams of stock solution required to solubilize the drug, Stock #7 [1] | amount of stock solutions in which the drug was soluble [1] | bioavailability [2] |
| --- | --- | --- | --- | --- | --- | --- | --- | --- | --- |
| CC(C)(C#N)c1cc(Cn2cncn2)cc(C(C)(C)C#N)c1 [Anastrozole] | 1.0 grams | 1.0 grams | 1.0 grams | 1.0 grams | 1.0 grams | 1.0 grams | 1.0 grams | 1 g | – |
| C=C1C[C@@H]2[C@H](CC[C@]3(C)C(=O)CC[C@@H]23)[C@@]2(C)C=CC(=O)C=C12 [Exemestane] | 1.5 grams | 1.5 grams | 1.5 grams | 1.5 grams | 1.5 grams | 1.5 grams | 1.5 grams | – | – |
| CC(=O)O[C@H]1C(=O)[C@@]2(C)[C@H]([C@H](OC(=O)c3ccccc3)[C@]3(O)C[C@H](OC(=O)[C@H](O)[C@@H](NC(=O)c4ccccc4)c4ccccc4)C(C)=C1C3(C)C)[C@]1(OC(C)=O)CO[C@@H]1C[C@@H]2O [Paclitaxel] | 1.0 grams | 1.0 grams | 1.0 grams | 1.0 grams | 1.0 grams | 1.0 grams | 1.0 grams | 1 g | – |
